For this assay, the system named is MCP-1. As to the kind of experiment: MCP-1 ELISA in P rat NAc. The assay is classed as in vivo. The settings on record: 15 mg/kg I.P., 45 min. As to the method:
ELISA. Brain tissue micropunches were lysed with Cellyte MT and the extracts were assayed for protein content by the BCA procedure (Pierce) and for MCP-1 using the rat MCP-1 ELISA kit (Raybiotech—ERC-MCP-1-CL; Norcross, Ga., USA) or for fracktalkine using the rat fractalkine ELISA kit (Raybiotech—ERC-CX3CL1-CL; Norcross, Ga., USA) as per manufacturer's instructions.
Next, potential sex differences were directly examined in baseline or 3α,5α-THP inhibition of MCP-1 and pIRF7 expression in female vs. male P rat NAc (FIG. 9). […] Systemic administration of 3α,5α-THP (15 mg/kg, I.P.) to naïve female and male P rats inhibited the expression of MCP-1 (40% in female rat NAc; 25% in male rat NAc). Likewise, 3α,5α-THP administration to naïve female and male P rats inhibited the expression of pIRF7 to the same extent, (55% in female rat NAc; 55% in male rat NAc).
For orientation: ELISA stands for enzyme-linked immunosorbent assay.

We go through one molecule from patent US20210205329A1 (The University of North Carolina at Chapel Hill, priority 2018, published 2021).

In the case of `CC(=O)[C@H]1CC[C@H]2[C@@H]3CC[C@H]4C[C@H](O)CC[C@]4(C)[C@H]3CC[C@]12C` [3α,5α-THP, (3α,5α)3-hydroxypregnan-20-one], the “inhibition of MCP-1 expression in NAc” value reads like this: (naïve female P rats) 40%; (naïve male P rats) 25%.
